The text below walks through data of US6372691B1, “Method for controlling weeds” (Sumitomo Chemical Company, Limited, priority 1999, dated 2002).

Holding throughout (type): in vivo
Series [1] deals with corn. The series is described as follows: Test Example 2: phytotoxicity to corn. Details: key: No harm: Phytotoxicity is hardly seen.; Slight phytotoxicity which does not affect the growth of corn is seen.; Light phytotoxicity and light growth inhibition of corn are seen.; Middle phytotoxicity and growth inhibition of corn are seen.; Serious phytotoxicity and serious growth inhibition of corn are seen. To be noted: corn at 2-leaf stage, 10 days after application. How it is done:
(§1) The evaluation of phytotoxicity is as follows:
(§2) No harm: Phytotoxicity is hardly seen.
(§3) Light: Light phytotoxicity and light growth inhibition of corn are seen.
(§4) Middle: Middle phytotoxicity and growth inhibition of corn are seen.
(§5) Serious: Serious phytotoxicity and serious growth inhibition of corn are seen.
(§6) Plastic pots having a diameter of 11 cm and a depth of 8 cm were filled with upland soil, and seeded with common cocklebur (Xanthium strumarium) . The test plants were grown in a greenhouse for 5 days. After that, corn was further seeded in each of the above pots and the test plants were grown in the greenhouse for further 16 days. Emulsifiable concentrate comprising compound A or Comparative compound obtained by well mixing 5 parts of compound A or Comparative compound, 6 parts of Sorpol 3005X (produced by Toho Chemical Industry, Co., Ltd.) and 89 parts of xylene was diluted with prescribed amount of water, and the dilution was applied over the test plants uniformly using a small sprayer. The leaf stage of the corns grown for 16 days were 2-leaf stage. After the application, the test plants were grown in the greenhouse for 10 days and then, herbicidal activity and phytotoxicity to corn were examined.

Series [2] has as its system common cocklebur (Xanthium strumarium). The series is described as follows: Test Example 2: foliar application in greenhouse pots, herbicidal activity. More on the design: key: “0” means that there was no or little difference in the degree of germination or growth between the treated and the untreated tested plants at the time of examination; “10” means that the test plants died completely or their germination or growth was completely inhibited. To be noted: index 0 to 10, 10 days after application. How it is done: as §1, §6

Series [3] has as its system corn. The series is described as follows: Test Example 1: phytotoxicity to corn. More on the design: key: No harm: Phytotoxicity is hardly seen.; Slight phytotoxicity which does not affect the growth of corn is seen.; Light phytotoxicity and light growth inhibition of corn are seen.; Middle phytotoxicity and growth inhibition of corn are seen.; Serious phytotoxicity and serious growth inhibition of corn are seen. To be noted: 10 days after application; for Phytotoxicity C1: corn at 1-leaf stage; for Phytotoxicity C2: corn at 2-leaf stage.
Description: as §1, §2, §3, §4, §5
(§7) Plastic pots having a diameter of 11 cm and a depth of 8 cm were filled with upland soil, and seeded with common lambsquarters (Chenopodium album), ivyleaf morningglory (Ipomoea hederacea), velvetleaf (Abutilon theophrasti), and corn. The test plants were grown in a greenhouse for 7 days. After that, other corn was further seeded in each of the above pots and the test plants were grown in the greenhouse for further 19 days. Emulsifiable concentrate comprising compound A obtained by well mixing 5 parts of compound A, 6 parts of Sorpol 3005X (produced by Toho Chemical Industry, Co., Ltd.) and 89 parts of xylene was diluted with prescribed amount of water, and the dilution was applied over the test plants uniformly using a small sprayer. The leaf stage of the corns grown for 26 days and 19 days were 2-leaf stage and 1-leaf stage, respectively. After the application, the test plants were grown in the greenhouse for 10 days and then, herbicidal activity and phytotoxicity to corn were examined.

Series [4] deals with velvetleaf (Abutilon theophrasti). The series is described as follows: Test Example 1: foliar application in greenhouse pots, herbicidal activity. Details: key: “0” means that there was no or little difference in the degree of germination or growth between the treated and the untreated tested plants at the time of examination; “10” means that the test plants died completely or their germination or growth was completely inhibited. To be noted: index 0 to 10, 10 days after application. How it is done:
as §1, §7

Series [5] relates to ivyleaf morningglory (Ipomoea hederacea). The series is described as above. Details: key: “0” means that there was no or little difference in the degree of germination or growth between the treated and the untreated tested plants at the time of examination; “10” means that the test plants died completely or their germination or growth was completely inhibited. To be noted: index 0 to 10, 10 days after application. How it is done:
as §1, §7

The subject of series [6] is common lambsquarters (Chenopodium album). The description is as above. Details: key: “0” means that there was no or little difference in the degree of germination or growth between the treated and the untreated tested plants at the time of examination; “10” means that the test plants died completely or their germination or growth was completely inhibited. The following applies: index 0 to 10, 10 days after application. On the procedure: as §1, §7

SMILES strings stand for the structures.

With `COC(=O)CSc1cc(-n2c(=O)cc(C(F)(F)F)n(C)c2=O)c(F)cc1Cl` [Comparative compound, reference compound], the values for the Phytotoxicity corn entry with corn [1] (dosage 2.5 g/ha), in the series on corn [1] (dosage 5 g/ha) and with corn [1] (dosage 10 g/ha) were “No harm”, “Slight” and “light”, respectively. Also, the “Herbicidal activity Cocklebur” value is listed as 8 in series [2] (dosage 2.5 g/ha), 10 in series [2] (dosage 5 g/ha) and 10 in series [2] (dosage 10 g/ha).

In the case of `COC(=O)C(C)Oc1cc(-n2c(=O)cc(C(F)(F)F)n(C)c2=O)c(F)cc1Cl` (stereo not drawn) [Compound A, methyl 2-[2-chloro-4-fluoro-5-{3-methyl-2,6-dioxo-4-(trifluoromethyl)-1,2,3,6-tetrahydropyrimidin-1-yl}phenoxy]propionate], the “Phytotoxicity C1” value with corn [3] (dosage 5 g/ha) is recorded as “No harm”; in the series on corn [3] (dosage 10 g/ha), “No harm”; in the series with corn [3] (dosage 20 g/ha), “Slight”. The “Phytotoxicity C2” value in the series with corn [3] (dosage 5 g/ha), in the series on corn [3] (dosage 10 g/ha) and in the series with corn [3] (dosage 20 g/ha) was “No harm” in each case. In addition, the “Herbicidal activity Ve” value in series [4] (dosage 5 g/ha), in series [4] (dosage 10 g/ha) and in series [4] (dosage 20 g/ha) was 10 each time. Besides, the “Herbicidal activity Mo” value in series [5] (dosage 5 g/ha), in series [5] (dosage 10 g/ha) and in series [5] (dosage 20 g/ha) was 10 throughout. In addition, the “Herbicidal activity La” value in series [6] (dosage 5 g/ha) was 9; in series [6] (dosage 10 g/ha) it was 10; in series [6] (dosage 20 g/ha), 10. Further, the Phytotoxicity corn result in the series with corn [1] (dosage 2.5 g/ha), in the series with corn [1] (dosage 5 g/ha) and in the series on corn [1] (dosage 10 g/ha) was “No harm” in each case. Besides, the “Herbicidal activity Cocklebur” value in series [2] (dosage 2.5 g/ha), in series [2] (dosage 5 g/ha) and in series [2] (dosage 10 g/ha) was 10 each time.
